Patent US20250134902A1, “DRUG REPURPOSING FOR DELAYED TREATMENT OF ISCHEMIC STROKE” (UNIVESRITY OF NORTH TEXAS HEALTH SCIENCE CENTER, priority 2022, published 2025)
Entries after “also recorded” stand apart in the source; their conditions may differ.

Columns and labels:
[1] = tested on: rat model of focal cerebral ischemia (tMCAO); test: BrdU cell proliferation in the brain after tMCAO; format: in vivo
Experimental: Two days before tMCAO rats were trained to lick 5% sucrose from a 1 ml syringe. After behavioral assessment on Day 1 after tMCAO, rats were randomly assigned to 4 groups in a blinded fashion. Groups included sucrose Vehicle, or 45, 68 or 135 mg/kg oxeladin. Oxeladin was prepared in 5% sucrose and provided to rats from the end of a 1 ml syringe. Starting 48 hours after stroke, rats were administered treatments daily from day 3 to day 14. On days 3-14 rats were injected i.p. with 50 mg/kg bromodeoxyuridine (BrdU; Fisher Bioreagents). At the conclusion of the study, rats were euthanized under deep isoflurane anesthesia. Rats were transcardially perfused with cold saline and either decapitated for brain collection and flash freezing of brain tissue or transcardially perfused with 4% formaldehyde for immunohistochemical studies.
Actions of oxeladin on proliferation in the brain. Fourteen days after tMCAO, rats were transcardially perfused with saline and 4% formaldehyde, as described above. Brains were removed and post-fixed for 48 hours in 4% formaldehyde and then moved to phosphate buffer. Brains were blocked and serial […] coronal sections through the subventricular zone (SVZ) and dorsal hippocampus (HP) were made with a cryostat. Sections were affixed to glass slides and stored at −20° C. until processed. Sections were subjected to antigen retrieval with 10 mM sodium citrate (pH 6.0). Slides were immersed in preheated buffer, placed in a commercial vegetable steamer at 99° C. for 15 minutes and allowed to cool before processing. Immunohistochemistry was performed for the detection of BrdU with a monoclonal primary antibody (Cell Signaling Technology #5292S, 1:5000), followed by a biotinylated secondary antibody (Jackson Immuno Research #715066151, 1:400). […] In the striatum and cortex, the percent area containing BrdU positive cells was assessed in wide-field images captured with a 4× objective using a Keyence BZ-X800 as described above. In the dentate gyrus, individual BrdU+ cells were counted by a treatment-blinded observer in 3 sections per rat (n=6/group). In the SVZ, BrdU+ staining was assessed by a treatment-blinded observer using NEUROLUCIDA® software (Microbrightfield) to map positive cells on the ischemic side (n=4-6).

neuronal MN9D cell line = test: BDNF secretion via in situ ELISA; format: cell-based; details: 10 μM, 24 hrs, MN9D cells; normalized to maximal response of 10 μM 4-PPBP; mean ± SEM; asterisk = significantly different from 4-PPBP
Description: Measuring BDNF secretion via in situ ELISA. […] The in situ ELISA improves on traditional ELISA by seeding BDNF-secreting cells directly into the wells pre-coated with an anti-BDNF primary antibody. BDNF secreted by these cells is immediately captured by the primary antibody, drastically increasing the sensitivity and reproducibility of the ELISA assay. Intact cells are removed […] the addition of the secondary and tertiary antibodies. The amount of BDNF secreted from the neuronal MN9D cells was quantified using an in situ ELISA assay developed using the BDNF EMAX® ImmunoAssay kit (Cat. No. G7611, Promega, Madison, WI). Briefly, a NUNC™ MAXISORP™ flat-bottom, polystyrene, 96-well immunoplate was coated for 48 hrs at 4° C. with an anti-BDNF monoclonal antibody diluted 1:1000 v/v in carbonate buffer containing 25 mM sodium bicarbonate and 25 mM sodium carbonate, pH 9.7. Unbound antibody was removed by washing 5 times with 150 μL of TBST buffer (20 mM Tris-HCl, pH7.6, 150 mM NaCl, and 0.05% (v/v) TWEEN® 20), before blocking non-specific sites first with blocking buffer for 1 hr and then with culture medium for 2 hrs. Cells were seeded at 35,000 cells per well and incubated overnight at 37° C. in a humidified CO2 incubator. The following day, the wells were replaced with fresh culture media containing either experimental compounds or vehicle controls, then incubated for an additional 24 hours. In addition, on the same plate, but in separate wells, BDNF standards were added ranging in concentration from 15.6-250 pg/mL. After 24 hrs incubation with experimental compounds, the media was aspirated and 100 μL of Dulbecco's phosphate saline (D-PBS without Ca^2+ and Mg^2+ supplemented with 5 mM EDTA) was added to each well and incubated for 15 min at 37° C. to promote cell lifting. Cells were then detached from the bottom of wells by triturating in the center and around the edges of the well. After removing all cell debris, the wells were rinsed five times with 150 μL of TBST. The plate was then incubated with 1:500 v/v diluted polyclonal anti-human BDNF antibody for 2 hrs at room temperature. This antibody was removed, and wells were washed five times with 150 μL of TBST, before incubating with 1:200 v/v diluted polyclonal Anti-IgY HRP conjugate for 2 hrs at room temperature. Wells were then washed five times with 150 μL of TBST and the remaining specifically bound polyclonal antibody was detected with the 50 μL colorimetric HRP substrate 3,3′,5,5′-Tetramethylbenzidine (TMB). The reaction was terminated with 50 μL of 1 M HCl and the color intensity was quantified by measuring the absorbance at 450 nm using a FLEXSTATION® 3 plate reader (Molecular Devices, Sunnyvale, CA). […] A one-way ANOVA with a Bonferroni multiple comparisons post-hoc analysis (P<0.05) was applied to determine significant differences between groups.
Further, BDNF secreted from MN9D cells can be detected 24 hours after treatment with S1R ligand, whereas BDNF secreted from the B104 cell line takes 7 days to be detected (Fujimoto, et al., 2012).
An in situ ELISA approach was utilized because of its improved sensitivity related to its rapid capture of secreted BDNF (Balkowiec & Katz, 2000; Dalwadi, et al., 2017). […] Values are averages of 2-10 experiments±SEM, and each experiment was performed in triplicate. Statistical significance at P<0.05 was determined by ANOVA followed by a Bonferroni's post-hoc test and are marked with an asterisk.

BDNF = test: Steady-state BDNF in brain homogenates by ELISA (rats of the maximum tolerated dose study); format: in vivo, rat; details: 135 mg/kg p.o., ten days
Experimental: Actions of oxeladin on BDNF in the brain. […] Cerebral cortex and hippocampal samples were homogenized in TBS supplemented with 0.1% NP-40 detergent and protease inhibitor cocktail. Protein concentrations were determined with a PIERCE® BCA assay (ThermoPierce). Samples were diluted 1:20 and assayed in triplicate according to manufacturer's instructions and assayed a FLEXSTATION® 3 plate reader (Molecular Devices, Sunnyvale, CA).

[2] = 135 mg/kg starting 48 hours after tMCAO, 14-15 days after tMCAO, vs vehicle

## CCN(CC)CCOCCOC(=O)C(CC)(CC)c1ccccc1 [Oxeladin]
[1]; [2]
  BrdU staining (area of BrdU+ cells) in the cerebral cortex: significantly smaller area; also recorded: significantly reduced
  BrdU staining in the striatum: did not alter BrdU staining
[1]; 135 mg/kg, 14-15 days after tMCAO, vs vehicle
  BrdU positive cells in the subventricular zone (SVZ), infarcted hemisphere: no differences in BrdU+ cells between treatment groups; also recorded: did not reveal a significant difference
[1]; overall conclusion
  cell proliferation in the brain or SVZ after tMCAO: does not enhance cell proliferation
Neuronal MN9D cell line
  Efficacy of BDNF secretion: 0.55 ± 0.04
BDNF
  BDNF levels in the hippocampus (ELISA): not in the hippocampus
BDNF; P<0.05
  BDNF levels in the cerebral cortex (ELISA): significant increase; also recorded: significantly increase
